From patent publication US11166916B2, “Carbon quantum dots and preparation process and use thereof” (CHANG GUNG UNIVERSITY, priority 2019, dated 2021)
Values after ≈ are worked out from the molar mass of the structure shown.

Assays:
Assay in all cases: Antimicrobial test, MIC90 by spread plate count
Escherichia coli = type: cell-based; details: BCRC10316, Escherichia coli BCRC 10316
Protocol: (§1) A respective one of Staphylococcus aureus, Escherichia coli, Pseudomonas aeruginosa, Salmonella enteritidis, and MRSA was inoculated into a LB broth, followed by incubation in a thermostatic shaking incubator (37° C.) until an OD600 value of 1.0 was reached. The respective resultant culture was centrifuged at 3,000 g for 10 minutes, and the cell pellet thus obtained was washed with a 5 mM phosphate buffer (pH 7.4), followed by suspending with a LB broth. The resultant bacterial broths of Staphylococcus aureus, Escherichia coli, Pseudomonas aeruginosa, Salmonella enteritidis, and MRSA (each of such five bacterial suspensions contained a bacterial concentration of 1×10^4 CFU/mL) were used for the following experiment.
(§2) A suitable amount of a respective one of CQD^DA, CQD^SPD, CQD^DA-SPM, CQD^DA-SPD, CQD^DA-PUT, CQD^DA-SPM-1, and CQD^DA-SPM-2 was freeze-dried, and the respective resultant freeze-dried powder was dissolved in deionized water, followed by dilution with a 5 mM phosphate buffer (pH 7.4), so as to obtain seven CQD solutions having different concentrations (0.05-50 μg/mL).
(§3) A respective one of the five CQD solutions (i.e., CQD^DA, CQD^SPD, CQD^DA-SPM, CQD^DA-SPD, and CQD^DA-PUT solutions), the DA solutions, and the SPM solutions and a respective one of the bacterial broths of Staphylococcus aureus and Escherichia coli were mixed in a 5 mM phosphate buffer (pH 7.4), and the respective resultant mixture was incubated in a thermostatic shaking incubator (37° C.) for 1 hour, followed by addition of a suitable amount of LB broth. After incubation with shaking for 18 hours, the respective resultant culture was subjected to serial dilution with a LB broth, so as to obtain seven dilutions (10^1 to 10^7).
(§4) Thereafter, 1 μL of the respective dilution was subjected to spread plate procedure. The number of surviving bacteria was counted, and the minimum inhibitory concentration to inhibit the growth of 90% of a bacterial isolate (MIC90) was determined according to the technique well known to and routinely used by one skilled in the art.
(§5) A respective one of the four CQD solutions (i.e., CQD^DA, CQD^DA-SPM, CQD^DA-SPM-1, and CQD^DA-SPM-2 solutions) and the SPM solutions and a respective one of bacterial broths of Staphylococcus aureus, Escherichia coli, Pseudomonas aeruginosa, Salmonella enteritidis, and MRSA were mixed in a 5 mM phosphate buffer (pH 7.4), and the respective resultant mixture was subjected to antimicrobial activity analysis according to the method described in section E of this example.

Staphylococcus aureus = type: cell-based; details: ATCC9144, Staphylococcus aureus ATCC 9144
Protocol: as §1, §2, §3, §4, §5

Pseudomonas aeruginosa = type: cell-based; details: ATCC10145; Table 4; Pseudomonas aeruginosa ATCC 10145
Protocol: as §1, §2, §3, §4, §5

Salmonella enteritidis = type: cell-based; details: Salmonella enterica, ATCC 13076 / ENTERITIDIS; Table 4; Salmonella enteritidis ATCC 13076
Protocol: as §1, §2, §3, §4, §5

MRSA = type: cell-based, Methicillin-resistant Staphylococcus aureus; details: Staphylococcus aureus, ATCC 33592 / MRSA; Table 4; MRSA ATCC 33592
Protocol: as §1
as §2, with “μg/mL). […]” for “μg/mL).”

[1] = Table 3, 1 h in 5 mM phosphate buffer pH 7.4, then 18 h in LB broth

NCCc1ccc(O)c(O)c1 [DA, dopamine]
MIC90 (Escherichia coli; [1]): 512 µg/mL (≈ 3.34 mM) | MIC90 (Staphylococcus aureus; [1]): 250 µg/mL (≈ 1.63 mM)

NCCCNCCCCNCCCN [SPM, spermine]
MIC90 (Escherichia coli; [1]): 2350 µg/mL (≈ 11.6 mM) | MIC90 (Escherichia coli; Table 4): 2350 µg/mL (≈ 11.6 mM) | MIC90 (Staphylococcus aureus; [1]): 658 µg/mL (≈ 3.25 mM) | MIC90 (Staphylococcus aureus; Table 4): 658 µg/mL (≈ 3.25 mM) | MIC90 (Pseudomonas aeruginosa): 2450 µg/mL (≈ 12.1 mM) | MIC90 (Salmonella enteritidis): 2660 µg/mL (≈ 13.1 mM) | MIC90 (MRSA): 1550 µg/mL (≈ 7.67 mM)
